From paper PMC6120666 (The EMBO Journal, 2018)

Legend:
Test in all cases: Drug affinity chromatography with c-ponatinib and LC-MS/MS (ponatinib interactome)
Assay type in all cases: binding
[1] = target: T1, proteins of U2OS cell lysate (Homo sapiens, UniProt O43175)
T1 construct: Proteins enriched by c-ponatinib from U2OS cell lysate; endogenous in cells; host or cells: U2OS cell lysate
Experimental: (§1) Drug affinity chromatography
(§2) U2OS cells were grown until approximately 80% confluent before being pelleted and washed with PBS. Cell pellets were subsequently lysed in buffer A (50 mM Tris pH 7.5, 0.8% v/v NP-40, 5% v/v glycerol, 1.5 mM MgCl2, 100 mM NaCl, 25 mM NaF, 1 mM Na3VO4, 1 mM PMSF, 1mM DTT, 10 μg/mL TLCK, 1 μg/ml Leupeptin, 1 μg/ml Aprotinin, 1 μg/ml soy bean trypsin) and lysates prepared […]
(§3) concentration was determined and lysates stored at -80 °C.
(§4) Briefly, 100 μl of bead slurry (50% in isopropanol) were used for each pulldown experiment. Beads were washed with DMSO (3 × 500 μl), and resuspended in DMSO (50 μl), to which the amine (0.025 μmol) and triethylamine (0.75 μl) were added. The beads were incubated at room temperature for 16 h, and depletion of free amine from the supernatant was determined by LC-MS analysis. Ethanolamine (2.5 μl) was then added to block any unreacted NHS sites, and the beads incubated for a further 16 h. Derivatized beads were then washed with DMSO (3 × 500 μl), buffer A (3 × 1 ml), and incubated with cell lysates (2 mg of protein per pulldown, at 6 […]
(§5) Beads and treated lysates were incubated for 2 h at 4 °C before washing with buffer A (5 ml), Buffer B (50 mM HEPES pH 7.5, 100 mM NaCl, 500 μM EDTA, 2.5 ml), and eluted with formic acid (100 mM, 250 μl). Samples were neutralized with triethylammoniumbicarbonate (TEAB, 1M, 62.5 μl) and stored at -20 °C until preparation for proteomic analysis.
(§6) Samples were reduced with DTT (10 mM final concentration) for 30 min at room temperature, alkylated with iodoacetamide (55 mM final concentration) for 30 min at room temperature, diluted to 300 μl with TEAB, and incubated with trypsin (6 μl, 0.2 mg/ml) overnight at 37 °C. The digests were desalted using SEPAC lite columns (Waters), eluted with 69 % v/v MeCN, 0.1 % v/v FA in H2O (1 ml) and dried in vacuo. Dried peptides were stored at -20 °C before resuspension in 2 % v/v MeCN, 1 % v/v FA in H2O (20 μl) for LC-MS/MS analysis.
(§7) LC-MS/MS data acquisition
(§8) Mass spectrometry data was acquired at the Discovery Proteomics Facility (University of Oxford).
(§9) Digested samples were analyzed by nano-UPLC–MS/MS using a Dionex Ultimate 3000 nano UPLC with EASY spray column (75 μm × 500 mm, 2 μm particle size, Thermo Fisher Scientific) with a 60 min gradient of 0.1 % (v/v) formic acid in 5 % (v/v) DMSO to 0.1 % (v/v) formic acid with 35 % (v/v) acetonitrile in 5 % (v/v) DMSO at a flow rate of approximately 250 nl min−1 (600 bar per 40 °C column temperature). Mass spectrometry data was acquired either with an Orbitrap Q Exactive (Survey scans acquired at a resolution of 70,000 @ 200m/z and the 15 most abundant precursors were selected for HCD fragmentation), or an Orbitrap Q Exactive High Field (HF) instrument (survey scans were […]

[2] = target: T2, proteins of U2OS cell lysate (Homo sapiens, UniProt P28074)
T2 construct: Proteins enriched by c-ponatinib from U2OS cell lysate; endogenous in cells; host or cells: U2OS cell lysate
Experimental: as §1, §2, §3, §4, §5, §6, §7, §8, §9

[3] = target: T3, proteins of U2OS cell lysate (Homo sapiens, UniProt P19338)
T3 construct: Proteins enriched by c-ponatinib from U2OS cell lysate; endogenous in cells; host or cells: U2OS cell lysate
Experimental: as §1, §2, §3, §4, §5, §6, §7, §8, §9

[4] = target: T4, proteins of U2OS cell lysate (Homo sapiens, UniProt P23396)
T4 construct: Proteins enriched by c-ponatinib from U2OS cell lysate; endogenous in cells; host or cells: U2OS cell lysate
Experimental: as §1, §2, §3, §4, §5, §6, §7, §8, §9

[5] = target: T5, proteins of U2OS cell lysate (Homo sapiens, UniProt Q16186)
T5 construct: Proteins enriched by c-ponatinib from U2OS cell lysate; endogenous in cells; host or cells: U2OS cell lysate
Experimental: as §1, §2, §3, §4, §5, §6, §7, §8, §9

[6] = target: T6, proteins of U2OS cell lysate (Homo sapiens, UniProt P09497)
T6 construct: Proteins enriched by c-ponatinib from U2OS cell lysate; endogenous in cells; host or cells: U2OS cell lysate
Experimental: as §1, §2, §3, §4, §5, §6, §7, §8, §9

[7] = target: T7, proteins of U2OS cell lysate (Homo sapiens, UniProt Q06830)
T7 construct: Proteins enriched by c-ponatinib from U2OS cell lysate; endogenous in cells; host or cells: U2OS cell lysate
Experimental: as §1, §2, §3, §4, §5, §6, §7, §8, §9

[8] = target: T8, proteins of U2OS cell lysate (Homo sapiens, UniProt Q9UQ35)
T8 construct: Proteins enriched by c-ponatinib from U2OS cell lysate; endogenous in cells; host or cells: U2OS cell lysate
Experimental: as §1, §2, §3, §4, §5, §6, §7, §8, §9

[9] = target: T9, proteins of U2OS cell lysate (Homo sapiens, UniProt P12270)
T9 construct: Proteins enriched by c-ponatinib from U2OS cell lysate; endogenous in cells; host or cells: U2OS cell lysate
Experimental: as §1, §2, §3, §4, §5, §6, §7, §8, §9

[10] = target: T10, proteins of U2OS cell lysate (Homo sapiens, UniProt Q14697)
T10 construct: Proteins enriched by c-ponatinib from U2OS cell lysate; endogenous in cells; host or cells: U2OS cell lysate
Experimental: as §1, §2, §3, §4, §5, §6, §7, §8, §9

[11] = target: T11, proteins of U2OS cell lysate (Homo sapiens, UniProt P35268)
T11 construct: Proteins enriched by c-ponatinib from U2OS cell lysate; endogenous in cells; host or cells: U2OS cell lysate
Experimental: as §1, §2, §3, §4, §5, §6, §7, §8, §9

[12] = target: T12, proteins of U2OS cell lysate (Homo sapiens, UniProt P06733)
T12 construct: Proteins enriched by c-ponatinib from U2OS cell lysate; endogenous in cells; host or cells: U2OS cell lysate
Experimental: as §1, §2, §3, §4, §5, §6, §7, §8, §9

[13] = target: T13, proteins of U2OS cell lysate (Homo sapiens, UniProt P63244)
T13 construct: Proteins enriched by c-ponatinib from U2OS cell lysate; endogenous in cells; host or cells: U2OS cell lysate
Experimental: as §1, §2, §3, §4, §5, §6, §7, §8, §9

[14] = target: T14, proteins of U2OS cell lysate (Homo sapiens, UniProt P09619)
T14 construct: Proteins enriched by c-ponatinib from U2OS cell lysate; endogenous in cells; host or cells: U2OS cell lysate
Experimental: as §1, §2, §3, §4, §5, §6, §7, §8, §9

[15] = target: T15, proteins of U2OS cell lysate (Homo sapiens, UniProt P10515)
T15 construct: Proteins enriched by c-ponatinib from U2OS cell lysate; endogenous in cells; host or cells: U2OS cell lysate
Experimental: as §1, §2, §3, §4, §5, §6, §7, §8, §9

[16] = target: T16, proteins of U2OS cell lysate (Homo sapiens, UniProt P60900)
T16 construct: Proteins enriched by c-ponatinib from U2OS cell lysate; endogenous in cells; host or cells: U2OS cell lysate
Experimental: as §1, §2, §3, §4, §5, §6, §7, §8, §9

[17] = target: T17, proteins of U2OS cell lysate (Homo sapiens, UniProt P14618)
T17 construct: Proteins enriched by c-ponatinib from U2OS cell lysate; endogenous in cells; host or cells: U2OS cell lysate
Experimental: as §1, §2, §3, §4, §5, §6, §7, §8, §9

[18] = target: T18, proteins of U2OS cell lysate (Homo sapiens, UniProt Q9NVA2)
T18 construct: Proteins enriched by c-ponatinib from U2OS cell lysate; endogenous in cells; host or cells: U2OS cell lysate
Experimental: as §1, §2, §3, §4, §5, §6, §7, §8, §9

[19] = target: T19, proteins of U2OS cell lysate (Homo sapiens, UniProt Q96P70)
T19 construct: Proteins enriched by c-ponatinib from U2OS cell lysate; endogenous in cells; host or cells: U2OS cell lysate
Experimental: as §1, §2, §3, §4, §5, §6, §7, §8, §9

T10 sequence (Q14697 29-944): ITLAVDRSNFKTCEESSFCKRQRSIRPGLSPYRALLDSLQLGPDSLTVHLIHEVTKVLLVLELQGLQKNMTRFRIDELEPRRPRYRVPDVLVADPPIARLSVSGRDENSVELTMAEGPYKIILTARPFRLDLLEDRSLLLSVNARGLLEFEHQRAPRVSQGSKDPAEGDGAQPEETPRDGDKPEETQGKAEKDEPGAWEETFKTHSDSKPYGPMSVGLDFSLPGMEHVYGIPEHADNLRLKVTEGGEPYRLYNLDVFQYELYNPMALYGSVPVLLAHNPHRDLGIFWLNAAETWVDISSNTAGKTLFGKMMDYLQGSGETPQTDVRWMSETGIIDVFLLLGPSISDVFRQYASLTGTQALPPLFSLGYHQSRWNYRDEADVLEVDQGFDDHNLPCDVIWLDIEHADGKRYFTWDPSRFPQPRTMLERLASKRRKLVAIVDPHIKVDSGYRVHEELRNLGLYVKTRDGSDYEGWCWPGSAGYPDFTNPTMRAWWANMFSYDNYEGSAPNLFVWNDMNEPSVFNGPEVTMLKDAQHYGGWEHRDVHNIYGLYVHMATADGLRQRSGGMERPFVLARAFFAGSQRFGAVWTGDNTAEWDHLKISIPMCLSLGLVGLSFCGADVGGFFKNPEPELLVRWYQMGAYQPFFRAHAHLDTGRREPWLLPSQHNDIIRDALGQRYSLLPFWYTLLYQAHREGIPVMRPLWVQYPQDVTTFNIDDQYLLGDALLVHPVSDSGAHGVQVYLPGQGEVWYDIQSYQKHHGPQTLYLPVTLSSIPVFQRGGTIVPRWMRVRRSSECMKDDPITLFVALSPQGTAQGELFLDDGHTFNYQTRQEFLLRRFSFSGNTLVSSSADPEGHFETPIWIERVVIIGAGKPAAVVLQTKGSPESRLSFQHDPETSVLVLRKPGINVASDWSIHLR
T7 sequence (Q06830 whole entry): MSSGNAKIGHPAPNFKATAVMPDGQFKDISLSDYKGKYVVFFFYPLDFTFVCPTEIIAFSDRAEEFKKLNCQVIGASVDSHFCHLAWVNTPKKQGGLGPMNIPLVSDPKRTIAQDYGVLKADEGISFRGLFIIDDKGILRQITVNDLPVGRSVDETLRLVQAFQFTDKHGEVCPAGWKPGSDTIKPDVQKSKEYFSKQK
T9 sequence (P12270 whole entry): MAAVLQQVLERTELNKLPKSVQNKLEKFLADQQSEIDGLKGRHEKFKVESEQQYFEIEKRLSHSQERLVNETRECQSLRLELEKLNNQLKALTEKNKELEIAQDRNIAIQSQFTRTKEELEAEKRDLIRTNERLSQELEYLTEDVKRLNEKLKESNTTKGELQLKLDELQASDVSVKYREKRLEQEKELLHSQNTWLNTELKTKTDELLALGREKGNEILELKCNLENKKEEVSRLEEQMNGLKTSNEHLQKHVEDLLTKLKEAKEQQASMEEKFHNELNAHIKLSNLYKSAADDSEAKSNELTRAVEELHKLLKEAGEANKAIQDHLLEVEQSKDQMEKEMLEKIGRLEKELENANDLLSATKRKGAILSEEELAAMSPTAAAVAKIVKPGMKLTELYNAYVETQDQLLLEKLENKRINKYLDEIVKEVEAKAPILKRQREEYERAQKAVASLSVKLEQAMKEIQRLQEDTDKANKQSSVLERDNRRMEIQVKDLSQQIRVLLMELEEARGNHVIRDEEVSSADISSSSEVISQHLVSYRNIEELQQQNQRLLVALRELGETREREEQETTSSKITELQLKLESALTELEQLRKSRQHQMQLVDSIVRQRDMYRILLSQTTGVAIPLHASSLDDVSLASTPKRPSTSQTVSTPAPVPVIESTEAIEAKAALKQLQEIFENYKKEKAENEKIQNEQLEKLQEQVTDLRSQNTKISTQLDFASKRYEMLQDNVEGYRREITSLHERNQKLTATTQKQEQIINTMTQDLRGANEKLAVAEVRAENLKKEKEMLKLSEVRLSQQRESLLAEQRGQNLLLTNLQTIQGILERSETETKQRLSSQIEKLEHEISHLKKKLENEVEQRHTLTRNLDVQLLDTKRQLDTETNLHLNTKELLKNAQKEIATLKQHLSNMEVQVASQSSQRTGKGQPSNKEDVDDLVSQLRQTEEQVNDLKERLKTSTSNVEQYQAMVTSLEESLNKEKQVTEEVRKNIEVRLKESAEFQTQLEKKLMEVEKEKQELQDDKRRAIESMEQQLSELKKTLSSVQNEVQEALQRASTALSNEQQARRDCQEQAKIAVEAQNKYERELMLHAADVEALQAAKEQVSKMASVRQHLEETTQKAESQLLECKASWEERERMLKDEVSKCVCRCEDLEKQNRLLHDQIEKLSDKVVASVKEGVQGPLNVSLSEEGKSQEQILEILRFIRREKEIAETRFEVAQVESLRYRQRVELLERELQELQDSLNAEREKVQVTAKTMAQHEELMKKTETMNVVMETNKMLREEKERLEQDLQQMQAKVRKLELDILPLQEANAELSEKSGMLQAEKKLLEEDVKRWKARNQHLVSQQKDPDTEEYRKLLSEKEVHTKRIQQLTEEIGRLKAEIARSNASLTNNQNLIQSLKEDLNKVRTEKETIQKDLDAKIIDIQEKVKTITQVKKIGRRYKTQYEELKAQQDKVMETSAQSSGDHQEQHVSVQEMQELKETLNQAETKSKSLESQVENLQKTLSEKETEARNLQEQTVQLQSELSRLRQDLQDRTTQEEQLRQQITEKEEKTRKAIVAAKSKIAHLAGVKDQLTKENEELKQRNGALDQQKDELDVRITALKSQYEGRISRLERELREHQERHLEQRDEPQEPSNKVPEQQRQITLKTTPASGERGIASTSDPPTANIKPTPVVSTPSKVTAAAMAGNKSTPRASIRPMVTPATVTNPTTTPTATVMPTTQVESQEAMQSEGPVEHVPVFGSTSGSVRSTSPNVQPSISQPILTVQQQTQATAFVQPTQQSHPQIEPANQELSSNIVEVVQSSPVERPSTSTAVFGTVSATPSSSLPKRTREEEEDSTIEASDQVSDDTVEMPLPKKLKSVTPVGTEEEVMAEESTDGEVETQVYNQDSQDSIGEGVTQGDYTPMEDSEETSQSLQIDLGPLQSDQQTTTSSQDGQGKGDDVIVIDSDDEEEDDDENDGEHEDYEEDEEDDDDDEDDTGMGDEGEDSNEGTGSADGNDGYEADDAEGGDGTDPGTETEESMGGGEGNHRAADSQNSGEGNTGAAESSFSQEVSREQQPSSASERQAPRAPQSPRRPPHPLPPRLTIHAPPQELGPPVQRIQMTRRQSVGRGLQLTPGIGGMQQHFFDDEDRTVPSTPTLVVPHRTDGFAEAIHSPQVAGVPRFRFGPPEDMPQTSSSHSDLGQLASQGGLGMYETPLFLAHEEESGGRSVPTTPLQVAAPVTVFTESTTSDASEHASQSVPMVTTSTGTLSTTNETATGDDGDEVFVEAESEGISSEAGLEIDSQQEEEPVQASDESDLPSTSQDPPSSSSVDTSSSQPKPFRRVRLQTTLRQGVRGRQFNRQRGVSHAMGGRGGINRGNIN
T17 sequence (P14618 whole entry): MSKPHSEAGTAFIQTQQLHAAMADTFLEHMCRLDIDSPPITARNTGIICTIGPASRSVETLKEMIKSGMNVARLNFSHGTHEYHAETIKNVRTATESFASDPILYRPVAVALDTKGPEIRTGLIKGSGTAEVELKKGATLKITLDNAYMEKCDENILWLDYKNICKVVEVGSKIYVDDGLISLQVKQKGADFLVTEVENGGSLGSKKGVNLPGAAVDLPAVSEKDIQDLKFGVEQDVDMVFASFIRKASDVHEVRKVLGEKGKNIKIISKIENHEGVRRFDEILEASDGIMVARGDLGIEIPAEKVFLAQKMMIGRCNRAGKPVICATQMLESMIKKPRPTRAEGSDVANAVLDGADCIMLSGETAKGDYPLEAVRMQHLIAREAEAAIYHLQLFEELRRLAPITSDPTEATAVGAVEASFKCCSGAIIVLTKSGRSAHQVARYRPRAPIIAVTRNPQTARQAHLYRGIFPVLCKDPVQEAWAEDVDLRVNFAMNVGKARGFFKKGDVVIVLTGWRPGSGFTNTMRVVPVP
T19 sequence (Q96P70 whole entry): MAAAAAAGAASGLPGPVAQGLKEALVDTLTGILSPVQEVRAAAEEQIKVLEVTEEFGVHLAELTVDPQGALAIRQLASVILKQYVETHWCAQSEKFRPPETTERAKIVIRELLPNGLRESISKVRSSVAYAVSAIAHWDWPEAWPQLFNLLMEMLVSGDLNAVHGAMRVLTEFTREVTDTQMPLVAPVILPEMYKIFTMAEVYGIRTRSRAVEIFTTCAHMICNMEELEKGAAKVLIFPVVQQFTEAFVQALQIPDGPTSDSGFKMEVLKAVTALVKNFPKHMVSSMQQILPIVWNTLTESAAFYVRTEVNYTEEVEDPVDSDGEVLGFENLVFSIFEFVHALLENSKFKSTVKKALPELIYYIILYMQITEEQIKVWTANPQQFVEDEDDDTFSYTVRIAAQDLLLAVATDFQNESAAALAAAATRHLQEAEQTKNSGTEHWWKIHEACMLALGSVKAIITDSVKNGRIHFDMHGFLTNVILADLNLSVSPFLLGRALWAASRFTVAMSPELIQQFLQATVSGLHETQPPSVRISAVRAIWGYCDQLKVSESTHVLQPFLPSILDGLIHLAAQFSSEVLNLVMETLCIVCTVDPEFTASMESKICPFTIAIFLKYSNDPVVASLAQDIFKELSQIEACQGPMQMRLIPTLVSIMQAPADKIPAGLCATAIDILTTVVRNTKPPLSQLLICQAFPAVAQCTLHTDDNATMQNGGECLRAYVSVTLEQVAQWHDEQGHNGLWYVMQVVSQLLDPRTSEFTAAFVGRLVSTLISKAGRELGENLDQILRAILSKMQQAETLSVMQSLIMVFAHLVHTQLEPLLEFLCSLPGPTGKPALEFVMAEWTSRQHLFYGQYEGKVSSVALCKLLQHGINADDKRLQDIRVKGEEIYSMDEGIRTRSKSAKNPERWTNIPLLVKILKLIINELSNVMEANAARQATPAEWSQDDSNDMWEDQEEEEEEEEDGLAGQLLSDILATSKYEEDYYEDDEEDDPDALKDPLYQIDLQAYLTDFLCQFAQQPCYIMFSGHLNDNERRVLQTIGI

Cc1ccc(C(=O)Nc2ccc(CN3CCN(C)CC3)c(C(F)(F)F)c2)cc1C#Cc1cnc2cccnn12 [PON]
Average LFQ PON_WT ([1]; PHGDH, D-3-phosphoglycerate dehydrogenase): 23.086 | Average LFQ PON_WT ([2]; PSMB5, Proteasome subunit beta type-5): 21.73 | Average LFQ PON_WT ([3]; NCL, Nucleolin): 23.1289 | Average LFQ PON_WT ([4]; RPS3, 40S ribosomal protein S3): 21.7356 | Average LFQ PON_WT ([5]; ADRM1, Proteasomal ubiquitin receptor ADRM1): 22.2159 | Average LFQ PON_WT ([6]; CLTB, Clathrin light chain B): 22.5074 | Average LFQ PON_WT ([7]; PRDX1, Peroxiredoxin-1): 22.2382 | Average LFQ PON_WT ([8]; SRRM2, Serine/arginine repetitive matrix protein 2): 21.862 | Average LFQ PON_WT ([9]; TPR, Nucleoprotein TPR): 22.5124 | Average LFQ PON_WT ([10]; GANAB, Neutral alpha-glucosidase AB): 22.2601 | Average LFQ PON_WT ([11]; RPL22, 60S ribosomal protein L22): 21.5804 | Average LFQ PON_WT ([12]; ENO1, Alpha-enolase): 21.9992 | Average LFQ PON_WT ([13]; GNB2L1, Guanine nucleotide-binding protein subunit beta-2-like 1): 22.5999 | Average LFQ PON_WT ([14]; PDGFRB, Platelet-derived growth factor receptor beta): 22.3008 | Average LFQ PON_WT ([15]; DLAT, Dihydrolipoyllysine-residue acetyltransferase component of pyruvate dehydrogenase complex, mitochondrial): 21.6984 | Average LFQ PON_WT ([16]; PSMA6, Proteasome subunit alpha type-6): 22.244 | Average LFQ PON_WT ([17]; PKM, Pyruvate kinase PKM): 21.567 | Average LFQ PON_WT ([18]; SEPT11, Septin-11): 21.5746 | Average LFQ PON_WT ([19]; IPO9, Importin-9): 21.5093

Cc1ccc(C(=O)Nc2ccc(CN3CCN(CCCN)CC3)c(C(F)(F)F)c2)cc1C#Cc1cnc2cccnn12 [c-ponatinib, reference compound]
Average LFQ intensity ([1]; captured protein PHGDH, Rank 119): 23.086 | Average LFQ intensity ([2]; captured protein PSMB5, Rank 211): 21.7301 | Average LFQ intensity ([3]; captured protein NCL, Rank 117): 23.1289 | Average LFQ intensity ([4]; captured protein RPS3, Rank 210): 21.7357 | Average LFQ intensity ([5]; captured protein ADRM1, Rank 178): 22.2159 | Average LFQ intensity ([6]; captured protein CLTB, Rank 157): 22.5074 | Average LFQ intensity ([7]; captured protein PRDX1, Rank 177): 22.2382 | Average LFQ intensity ([8]; captured protein SRRM2, Rank 197): 21.862 | Average LFQ intensity ([9]; captured protein TPR, Rank 156): 22.5124 | Average LFQ intensity ([10]; captured protein GANAB, Rank 172): 22.2601 | Average LFQ intensity ([11]; captured protein RPL22, Rank 221): 21.5804 | Average LFQ intensity ([12]; captured protein ENO1, Rank 190): 21.9992 | Average LFQ intensity ([13]; captured protein GNB2L1, Rank 153): 22.5999 | Average LFQ intensity ([14]; captured protein PDGFRB, Rank 168): 22.3008 | Average LFQ intensity ([15]; captured protein DLAT, Rank 215): 21.6984 | Average LFQ intensity ([16]; captured protein PSMA6, Rank 175): 22.244 | Average LFQ intensity ([17]; captured protein PKM, Rank 224): 21.567 | Average LFQ intensity ([18]; captured protein 2011-09-01 (Septin-11), Rank 222): 21.5746 | Average LFQ intensity ([19]; captured protein IPO9, Rank 229): 21.5093
